{
  "source": "paper PMC3597455",
  "about": "(International Journal of Oncology, 2013)",
  "key": {"GPC3-specific CTLs": {"system": "GPC3-specific CTLs", "settings": "without an autoimmune response; cited from earlier work"}, "[1]": {"system": "RMA-S pulsed with mGPC3-1 peptide", "assay": "IFN-γ ELISPOT of mGPC3-1 peptide-specific CTL line against peptide-pulsed RMA-S", "assay_type": "cell-based, mouse", "settings": "CTL line 1×10^5, RMA-S 5×10^4 pulsed with 10 μg/ml peptide, 20 h"}, "[2]": {"system": "RMA-S pulsed with mGPC3-1 peptide", "assay": "Cytotoxicity assay", "assay_type": "cell-based, mouse", "settings": "mGPC3-1-specific CTL line against RMA-S pulsed with mGPC3-1 peptide; calcein AM, 4 h; non-pulsed RMA-S 2.2%"}, "CD8-positive cells": {"system": "CD8-positive cells", "assay": "IFN-γ ELISPOT after mGPC3-1 peptide vaccine in STAM mice", "assay_type": "in vivo, STAM mice C57BL/6N-NASH", "settings": "STAM mice immunized seven times with mGPC3-1 peptide vaccine; CD8-positive cells against RMA-S pulsed with mGPC3-1 peptide; n=3"}},
  "data": [
    {"sequence": "FVGEFFTDV [GPC3_144–152]", "values": [
      {"measurement": "induction of GPC3-specific CTLs (in words)", "setting": "GPC3-specific CTLs", "value": "can induce GPC3-specific CTLs"}
    ]},
    {"sequence": "AMFKNNYPSL [mGPC3-1]", "values": [
      {"measurement": "IFN-γ release of CTL line to peptide-pulsed vs non-pulsed RMA-S (in words)", "setting": "[1]", "value": "clearly released more IFN-γ"},
      {"measurement": "% cytotoxicity", "setting": "[2]", "value": 16.4, "unit": "%"},
      {"measurement": "average number of spots (IFN-γ ELISPOT)", "setting": "CD8-positive cells", "value": "100±74.3", "unit": "spots"}
    ]},
    {"sequence": "EYILSLEEL [GPC3_298–306]", "values": [
      {"measurement": "induction of GPC3-specific CTLs (in words)", "setting": "GPC3-specific CTLs", "value": "can induce GPC3-specific CTLs"}
    ]}
  ]
}
